From the supplement of paper PMC11451515

Test system: P12-Ichikawa
Assay: cell viability relative to DMSO control; higher = less cytotoxic
Conditions: 48 h
Summary of the method: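 Viability, reported as a per-plate percentage of DMSO wells with cell-free wells as background, came from CellTiter-Glo One luminescence. Reading took place after 48 h at 37°C. Before that, NOMO1 or SEM (500 cells/well) or P12-Ichikawa (1000 cells/well) leukemia cells, adapted for at least four passages in each medium, were seeded in 1536-well plates (5 μl) and pin-dosed with library compounds in DMSO, 47 μM to 0.79 nM over 11 threefold points.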

[1] = HPLM + 10% dialyzed FBS, 0.000781 µM
[2] = HPLM + 10% dialyzed FBS, 0.00234 µM
[3] = HPLM + 10% dialyzed FBS, 0.00702 µM
[4] = HPLM + 10% dialyzed FBS, 0.0211 µM
[5] = HPLM + 10% dialyzed FBS, 0.0632 µM
[6] = HPLM + 10% dialyzed FBS, 0.19 µM
[7] = HPLM + 10% dialyzed FBS, 0.569 µM
[8] = HPLM + 10% dialyzed FBS, 1.71 µM
[9] = HPLM + 10% dialyzed FBS, 5.12 µM
[10] = HPLM + 10% dialyzed FBS, 15.4 µM
[11] = HPLM + 10% dialyzed FBS, 46.1 µM
[12] = RPMI 5 mM glucose + 10% FBS, 0.000781 µM
[13] = RPMI 5 mM glucose + 10% FBS, 0.00234 µM
[14] = RPMI 5 mM glucose + 10% FBS, 0.00702 µM
[15] = RPMI 5 mM glucose + 10% FBS, 0.0211 µM
[16] = RPMI 5 mM glucose + 10% FBS, 0.0632 µM
[17] = RPMI 5 mM glucose + 10% FBS, 0.19 µM
[18] = RPMI 5 mM glucose + 10% FBS, 0.569 µM
[19] = RPMI 5 mM glucose + 10% FBS, 1.71 µM
[20] = RPMI 5 mM glucose + 10% FBS, 5.12 µM
[21] = RPMI 5 mM glucose + 10% FBS, 15.4 µM
[22] = RPMI 5 mM glucose + 10% FBS, 46.1 µM
[23] = RPMI 5 mM glucose + 10% dialyzed FBS, 0.000781 µM
[24] = RPMI 5 mM glucose + 10% dialyzed FBS, 0.00234 µM
[25] = RPMI 5 mM glucose + 10% dialyzed FBS, 0.00702 µM
[26] = RPMI 5 mM glucose + 10% dialyzed FBS, 0.0211 µM
[27] = RPMI 5 mM glucose + 10% dialyzed FBS, 0.0632 µM
[28] = RPMI 5 mM glucose + 10% dialyzed FBS, 0.19 µM
[29] = RPMI 5 mM glucose + 10% dialyzed FBS, 0.569 µM
[30] = RPMI 5 mM glucose + 10% dialyzed FBS, 1.71 µM
[31] = RPMI 5 mM glucose + 10% dialyzed FBS, 5.12 µM
[32] = RPMI 5 mM glucose + 10% dialyzed FBS, 15.4 µM
[33] = RPMI 5 mM glucose + 10% dialyzed FBS, 46.1 µM

SMILES | cell viability [1] [%] | cell viability [2] [%] | cell viability [3] [%] | cell viability [4] [%] | cell viability [5] [%] | cell viability [6] [%] | cell viability [7] [%] | cell viability [8] [%] | cell viability [9] [%] | cell viability [10] [%] | cell viability [11] [%] | cell viability [12] [%] | cell viability [13] [%] | cell viability [14] [%] | cell viability [15] [%] | cell viability [16] [%] | cell viability [17] [%] | cell viability [18] [%] | cell viability [19] [%] | cell viability [20] [%] | cell viability [21] [%] | cell viability [22] [%] | cell viability [23] [%] | cell viability [24] [%] | cell viability [25] [%] | cell viability [26] [%] | cell viability [27] [%] | cell viability [28] [%] | cell viability [29] [%] | cell viability [30] [%] | cell viability [31] [%] | cell viability [32] [%] | cell viability [33] [%]
NC(=O)Nc1cc(-c2ccc(CN3CCOCC3)cc2)sc1C(N)=O | 121 | 119 | 126 | 117 | 110 | 19.7 | 8.91 | 8.7 | 7.42 | 7.74 | 17.1 | 104 | 107 | 110 | 111 | 94.9 | 32.1 | 11.5 | 8.89 | 8.7 | 10 | 18.6 | 117 | 114 | 121 | 115 | 120 | 26.9 | 17.8 | 19.4 | 19 | 21.2 | 33.4
CC(C)NCC(O)COc1ccc(CCOCC2CC2)cc1 (configuration not stated) | 121 | 118 | 113 | 117 | 113 | 126 | 115 | 113 | 111 | 118 | 120 | 120 | 123 | 118 | 121 | 125 | 121 | 131 | 126 | 118 | 104 | 123 | 121 | 121 | 112 | 116 | 122 | 116 | 110 | 119 | 113 | 107 | 115
COc1cc2ncnc(Nc3cccc(Br)c3)c2cc1OC | 88.8 | 101 | 103 | 100 | 97.6 | 105 | 110 | 98.4 | 102 | 111 | 106 | 87.9 | 97.6 | 105 | 103 | 108 | 107 | 117 | 99.8 | 114 | 112 | 106 | 95.9 | 91.5 | 106 | 104 | 114 | 112 | 113 | 109 | 109 | 112 | 105
C#C[C@]1(O)CC[C@H]2[C@@H]3CCc4cc(OC)ccc4[C@H]3CC[C@@]21C | 118 | 104 | 111 | 106 | 110 | 98.5 | 111 | 102 | 101 | 109 | 98.5 | 110 | 101 | 112 | 106 | 113 | 106 | 106 | 108 | 90.7 | 111 | 97.6 | 103 | 101 | 100 | 107 | 114 | 111 | 107 | 107 | 101 | 102 | 97.6
CC(NCc1ccc2c(c1)[nH]/c(=N\C(=O)c1ccc(-c3cn[nH]c3)s1)n2CC(C)(C)O)C(C)(C)C (configuration not stated) | 117 | 112 | 108 | 115 | 117 | 111 | 99.1 | 65 | 29.5 | 25.9 | 2.69 | 109 | 118 | 121 | 123 | 124 | 121 | 102 | 72.9 | 29.8 | 14.7 | 2.33 | 134 | 124 | 120 | 130 | 119 | 122 | 104 | 71 | 31.7 | 24.9 | 3.31
CC(C)C[C@H](NC(=O)[C@H](Cc1ccccc1)NC(=O)c1cnccn1)B(O)O | 96.4 | 92.9 | 106 | 106 | 4.77 | 2.92 | 2.65 | 2.46 | 1.35 | 0.316 | -0.93 | 93.4 | 103 | 107 | 101 | 4.71 | 2.56 | 2.17 | 1.91 | 1.36 | 0.651 | -0.626 | 88.6 | 105 | 99 | 102 | 4.76 | 2.71 | 2.62 | 1.7 | 1.34 | 0.782 | -0.254
OC(COC1=C2C(=O)\C=C(/OC2=CC=C1)C([O-])=O)COC3=C4C(=O)\C=C(/OC4=CC=C3)C([O-])=O | 84.8 | 80.9 | 87.4 | 79.2 | 90.7 | 77.2 | 88.4 | 90.1 | 92 | 86.7 | 90.4 | 98.9 | 94.9 | 97 | 94.2 | 103 | 89 | 87.3 | 89.3 | 86.9 | 83.2 | 89.5 | 75.3 | 78.4 | 84.8 | 82.1 | 83.1 | 76.7 | 81.4 | 87.8 | 73.4 | 81.3 | 80.3
Cc1ccc(C(=O)c2cc(O)c(O)c([N+](=O)[O-])c2)cc1 | 93.6 | 93.5 | 95.5 | 103 | 101 | 104 | 104 | 102 | 90.9 | 101 | 105 | 90.2 | 88.2 | 85.9 | 85.8 | 102 | 103 | 95.1 | 94.6 | 84.3 | 102 | 102 | 82.5 | 93.4 | 95 | 91.8 | 89.3 | 93.6 | 99.2 | 91 | 84.7 | 89.5 | 91.4
CC1(C)CC(O)CC(C)(C)N1[O] | 111 | 112 | 119 | 118 | 128 | 121 | 132 | 124 | 120 | 117 | 119 | 110 | 111 | 109 | 110 | 126 | 134 | 125 | 114 | 119 | 119 | 116 | 107 | 122 | 113 | 120 | 125 | 129 | 125 | 134 | 127 | 127 | 126
Cc1ccc(-c2ncn(-c3ccc(Nc4nccc(-c5cccc(N6CCOCC6)c5)n4)cc3)n2)cn1 | 93.9 | 94.5 | 94.8 | 98.2 | 96.1 | 90.7 | 5.93 | 5.41 | 5.42 | 4.29 | 4.16 | 92.2 | 92.8 | 90.2 | 89.8 | 94.5 | 83.6 | 3.59 | 3.74 | 2.21 | 3.15 | 3.43 | 82.2 | 87.5 | 80.8 | 86.6 | 87.6 | 96.3 | 3.87 | 3.59 | 2.81 | 2.93 | 2.94
CCCCCCCCc1ccc(CCC(N)(CO)CO)cc1 | 113 | 111 | 113 | 104 | 108 | 112 | 101 | 107 | 76.1 | 84.1 | 7.48 | 118 | 114 | 113 | 114 | 119 | 115 | 104 | 101 | 80.8 | 60 | 3.8 | 105 | 110 | 112 | 109 | 103 | 111 | 90.2 | 114 | 87.2 | 68 | 3.18
C[C@@H]1C[C@H]2[C@@H]3CC\C4=C\C(=O)\C=C/[C@]4(C)[C@@]3(Cl)[C@@H](O)C[C@]2(C)[C@@]1(OC(=O)C5=CC=CO5)C(=O)CCl | 98.5 | 93.7 | 71.9 | 66.9 | 64.6 | 64.7 | 60.8 | 61.6 | 57.9 | 40.9 | 50 | 99.2 | 97.7 | 65.4 | 54.6 | 52.1 | 49.3 | 53.7 | 51.3 | 41.6 | 32.6 | 40.2 | 93 | 84.6 | 59.1 | 50.6 | 44.1 | 46.2 | 40 | 41.2 | 35.8 | 30.2 | 30.7
CN(C)CC/C=C1/c2ccccc2COc2ccc(CC(=O)O)cc21 | 118 | 112 | 116 | 120 | 125 | 125 | 122 | 126 | 129 | 125 | 131 | – | – | – | – | – | – | – | – | – | – | – | 122 | 114 | 122 | 141 | 140 | 136 | 146 | 135 | 134 | 136 | 138
CCNc1cc(NC2CCC(O)CC2)nc(Nc2ccc3c(ccn3Cc3ccccc3)c2)n1 (configuration not stated) | 112 | 117 | 117 | 126 | 127 | 128 | 126 | 128 | 124 | 120 | 109 | – | – | – | – | – | – | – | – | – | – | – | – | – | – | – | – | – | – | – | – | – | –
CC(C)c1ccccc1Cc1cc(C(=O)Nc2ccc([S+](=O)([O-])c3ccccc3C(C)(C)C)cc2)c(O)c(O)c1O | 112 | 112 | 111 | 113 | 111 | 110 | 106 | 102 | 101 | 97.2 | 91.5 | 112 | 116 | 116 | 114 | 118 | 115 | 107 | 107 | 108 | 103 | 87.7 | 111 | 112 | 117 | 108 | 107 | 114 | 108 | 107 | 97.1 | 93.3 | 92.9
